This series in a line: Surface tension of ophthalmic composition with added surfactant (Biolin Sigma 700/701 tensiometer). It is filed as physicochemical. The following applies: surfactant added at 0.1% w/v to ophthalmic composition A or B, FIGS. 4-6.

In the case of polyoxyl 40 stearate, the “change of surface tension of the ophthalmic composition” value (“change” below) is “surface tension was lowered”.
Still for that read-out and setting: to polysorbate 80 belongs “surface tension was lowered”.
For the substance tyloxapol, the “change” value is recorded as “reduced the surface tension the most”. Under “listed as tyloxapol”, the “change” value is “surface tension was lowered”.
